The subject of the experiment is C. albicans CaCi-8 + fluconazole, Alamar Blue growth, 48 h. Description: resistant C. albicans growth inhibition with fluconazole, dose response, CaCi-8 strain, Alamar Blue fluorescence (AID 2423). (Alamar Blue is a resazurin reagent that responds to reducing activity.)

In general, EC50 refers to the concentration giving half of the maximal effect.

Records with an inconclusive call do not appear. Active and inactive are the calls of the source. The rule behind the calls is not given here.

Take `Cc1ccc(N=Cc2cc(Cc3ccccc3Cl)cc([N+](=O)[O-])c2O)c(O)c1`: the EC50 was > 15 µM (inactive).

`Cc1ccccc1C(=O)Nc1nnc(-c2ccc(F)cc2)o1`: the concentration giving a half-maximal response (EC50) was 0.624 µM.

Take `CCOC(=O)C(=Cc1cc(=O)c(OC)co1)C(=O)OCC`: the concentration for a half-maximal effect (EC50) is 0.331 µM.

For the compound `Cc1ccc(C2=NNC3(CCOC(C)(C)C3)S2)cc1` (stereo unspecified), the half-maximal effective concentration (EC50) was 14.8 µM.

Turning to `COc1ccnc(N2CCN(c3ccccc3)CC2)c1C#N`, the EC50 is 0.859 µM.

For the compound `COc1cccc(-c2nc(NC(C)C)c3ccccc3n2)c1O`, the EC50 is 3.2 µM.

As to `COC(=O)/C(=N\Nc1ccc(Cl)cc1)Sc1nnc(-c2ccc(OC)cc2)n1C`, the EC50 is > 16 µM (inactive).

Turning to `CCc1nnc(NC(=O)CSc2nc(SC)ns2)s1`, the EC50 was 1.49 µM.

In the case of `CN(C)c1ccc(/C=C/c2ccc3ccccc3[n+]2C)cc1`, the EC50 is 0.37 µM.

For `CCn1cc(/C=C/c2cc[n+](C)cc2)c2ccccc21`, the EC50 is 9.3 µM.

Consider `O=C(Cc1cccs1)Nc1cccc(-c2nc3ccccc3[nH]2)c1`, for which the concentration for a half-maximal effect (EC50) is 0.798 µM.

For `S=C(Nc1ccccc1)Nc1nc2ccccc2n1CCOc1ccccc1`, the half-maximal effective concentration (EC50) was 2 µM.

Take `Oc1c(C(Nc2cccc(C(F)(F)F)c2)c2cccnc2)ccc2cccnc12` (stereo unspecified): the EC50 is 2.07 µM.

Consider `CCN(CC)c1ccc(/C=C/c2cccc[n+]2C)c(OC)c1`, for which the half-maximal effective concentration (EC50) was 1.23 µM.

For `CCN(CC)c1ccc(/C=C/C(=O)c2cccnc2)cc1`, the EC50 is < 0.12 µM.

Regarding `O=C(NC(=S)Nn1cnc2c(cnn2-c2ccccc2)c1=O)c1ccc(Cl)cc1`, the EC50 is 4.15 µM.

Regarding `CC(C)(C)NC(=S)N/N=C/c1cc(Br)c(O)c(Br)c1`, the EC50 is > 15 µM (inactive).

Turning to `O=c1c2ccc(Cl)cc2nc(-c2ccc([N+](=O)[O-])cc2)n1O`, the EC50 was 1.09 µM.

For `OC(COc1ccc2c(c1)OCO2)CN1CCCC1` (stereo unspecified), the EC50 is > 15 µM (inactive).

As to `O=C(Nc1ccc(NC(=O)c2cccs2)cc1)c1ccc(Br)o1`, the concentration giving a half-maximal response (EC50) is 9.96 µM.

For `Oc1ccc(CN2CCN(Cc3ccccc3)CC2)c2cccnc12`, the EC50 is > 16 µM (inactive).

`NC[C@@H]1O[C@H](C23CC4CC(CC(C4)C2)C3)Cc2c1ccc(O)c2O`: the EC50 was 3.36 µM.

Regarding `CCC(C)c1ccc(O)c(NC(=S)NC(=O)c2cccnc2)c1` (stereo unspecified), the EC50 was 0.878 µM.

On to `O=C(CCNC(=O)c1ccc(Br)cc1)Nc1nccs1`, for which the EC50 is > 15 µM (inactive).

Consider `O=[N+]([O-])c1ccc(C2[C@H]3C(c4ccccc4)=NC4(CCCC4)N23)cc1` (stereo partly specified), for which the EC50 was > 15 µM (inactive).

Regarding `O=c1oc2ccccc2c(O)c1Cc1cc(Cl)c2cccnc2c1O`, the EC50 is 2.75 µM.

For the compound `CC1(C)CC(N=Cc2c(O)n(Cc3ccc4c(c3)OCO4)c(=O)c3ccccc23)CC(C)(C)N1`, the EC50 is 3.85 µM.

Take `O=C(NNC(=S)NC(=O)C12CC3CC(CC(C3)C1)C2)c1ccncc1`: the 50% effective concentration (EC50) is 4.64 µM.

Take `O=C(N/N=C/c1c(O)n(CCC2=CCCCC2)c(=S)[nH]c1=O)c1ccccc1`: the EC50 was 10.7 µM.

For `CC(C)(C)c1ccc(SCC(N)=O)cc1`, the EC50 is > 15 µM (inactive).

Turning to `C/C(=N/NC(=O)c1cc(O)c(O)c(O)c1)c1ccc([N+](=O)[O-])cc1`, the EC50 is 4.81 µM.

On to `CCOc1ccccc1C1C2=C(COC2=O)Nc2cc3c(cc21)OCO3` (stereo unspecified), for which the EC50 is > 16 µM (inactive).

Turning to `CCCCC(=O)NC(=S)Nc1cccc(NC(=O)c2ccco2)c1`, the EC50 was 1.23 µM.

Take `CCOC(=O)c1nc(NNC(=O)c2ccc([N+](=O)[O-])cc2)sc1C`: the EC50 is 0.981 µM.

Consider `O=C(NCc1cc([N+](=O)[O-])ccc1O)c1cccnc1Sc1ccccc1Cl`, for which the EC50 was 0.148 µM.

`O=C(NNC(=S)NC1CCCCC1)c1ccccc1Br`: the EC50 was > 16 µM (inactive).

For `NC(=S)n1[nH]c(-c2ccccc2)c(N=Nc2ccccc2C(=O)N2CCOCC2)c1=O`, the EC50 is 8.43 µM.

Turning to `O=C(O)c1cnc(-c2ccccc2)nc1Sc1ccccc1Cl`, the EC50 was > 16 µM (inactive).

For `CCOc1ccc2nc(N3C(=O)/C(=C/c4ccccc4)NC3=S)sc2c1`, the EC50 is 1.41 µM.

As for `Cc1ncc(CO)c(/C=N/NC(=S)Nc2ccc(Cl)c(Cl)c2)c1O`, the EC50 was 1.88 µM.

As to `CN(C/C=C/C#CC(C)(C)C)Cc1cccc2ccccc12`, the concentration for a half-maximal effect (EC50) was 2.59 µM.

As for `Nc1nonc1-n1nnc(C(=O)N/N=C/c2cc(Br)ccc2O)c1CNc1ccccc1`, the EC50 is 0.634 µM.

On to `Cc1ccccc1C(=O)NNC(=S)NC(=O)c1ccc(Cl)cc1Cl`, for which the EC50 is 1.39 µM.

Consider `Oc1ccc(Br)cc1/C=N/Nc1ccccn1`, for which the half-maximal effective concentration (EC50) was 2.59 µM.

As for `Cc1nnc(NC(=O)c2c(-c3ccccc3Cl)noc2C)s1`, the EC50 was 3.08 µM.

For the compound `Cc1cc(C)c2ccc(N)nc2c1O`, the EC50 is 14.1 µM.

For the compound `CCOc1ccc(C(=O)Nc2ccc(Cc3ccncc3)cc2)cc1Br`, the half-maximal effective concentration (EC50) was 3.64 µM.

Regarding `Cc1ccc(C)c(N=Nc2ccc(O)c3ncccc23)c1`, the half-maximal effective concentration (EC50) is 0.716 µM.

With `Cc1ccc(-c2nnn(CC(=O)N(Cc3ccco3)C(C(=O)NC(C)(C)C)c3ccncc3)n2)o1` (stereo unspecified), the EC50 was > 15 µM (inactive).

With `CCCn1nc([N+](=O)[O-])c(C(C#N)c2nc3ccccc3s2)c(Cl)c1=O` (stereo unspecified), the 50% effective concentration (EC50) is 1.4 µM.

Consider `NNC(=O)c1cc(O)c(O)c(O)c1`, for which the EC50 was 8.64 µM.

Turning to `Nc1n[nH]c(-c2cccc([N+](=O)[O-])c2)n1`, the EC50 was > 15 µM (inactive).

Take `O=C(Nc1nnc(-c2ccco2)o1)c1cccc(Cl)c1`: the EC50 is 0.859 µM.

`NC(=S)NNc1cccc(Cl)c1`: the EC50 is > 16 µM (inactive).

In the case of `O=C(NNC(=S)NC(=O)c1ccccc1)c1ccc([N+](=O)[O-])cc1`, the EC50 was 4.12 µM.

For `CC[n+]1c(/C=C/N(C)c2ccccc2)oc2ccccc21`, the concentration giving a half-maximal response (EC50) was 7.62 µM.

As for `NC(=O)c1c(NC(=O)c2ccccc2F)sc2c1CCCC2`, the EC50 was 2.01 µM.

`O=C(NNC(=O)c1cc2ccccc2cc1O)Nc1ccccc1F`: the EC50 was > 16 µM (inactive).

As for `O=CNCCCc1nc2ccccc2n1Cc1cccc2ccccc12`, the EC50 was 3.52 µM.

Take `Cc1ccccc1C(=O)O/N=C/c1c(N2CCOCC2)n(C)c2ccccc12`: the half-maximal effective concentration (EC50) was 0.593 µM.

With `CCNc1nc(NC(C)C)nc(NC(C)(C)C)n1`, the concentration giving a half-maximal response (EC50) is 1.4 µM.

Turning to `Cc1ccc(Nc2nc(NCc3ccco3)c3ccccc3n2)cc1`, the concentration for a half-maximal effect (EC50) was 2.44 µM.

`Cc1ccc(C2CC2C(=O)NNC(=S)Nc2cccc(Cl)c2)cc1` (stereo unspecified): the half-maximal effective concentration (EC50) is 3.32 µM.

With `CC(C)c1ccc2oc(-c3ccc(NC(=O)c4ncn[nH]4)cc3)nc2c1`, the EC50 is > 16 µM (inactive).

With `Oc1c(Br)cc(Br)cc1/C=N/Nc1ccc(Cl)nn1`, the EC50 is 0.237 µM.

`Cc1ccc(-c2cc(-c3ccc(C)cc3)[n+](C)o2)cc1`: the EC50 was > 16 µM (inactive).

For `Cc1ccc(S(=O)(=O)CCC(=O)Nc2nc(-c3ccncc3)cs2)cc1`, the EC50 was 2.14 µM.

Turning to `Clc1ccccc1-c1nc2ccccc2c2nc3ccccc3n12`, the half-maximal effective concentration (EC50) was 0.204 µM.

For `O=C(O)CCCCCN1C(=O)/C(=C\c2ccncc2)SC1=S`, the EC50 is 0.898 µM.

Take `Cc1cc(C)nc(NS(=O)(=O)c2ccc(NC(=O)COc3ccccc3)cc2)n1`: the EC50 is > 15 µM (inactive).

In the case of `O=Nc1c(-c2cccc([N+](=O)[O-])c2)nc2ncccn12`, the EC50 is 0.828 µM.

In the case of `O=[N+]([O-])c1cc(S(=O)(=O)C(F)(F)F)ccc1Sc1nc2ccccc2s1`, the 50% effective concentration (EC50) was 3.2 µM.

Regarding `CCNC(=S)NNC(=O)c1cc(-c2cc(C)ccc2C)nc2ccccc12`, the 50% effective concentration (EC50) was 0.134 µM.

As for `COc1cc(OC)cc(C(=O)NNC(=O)c2cc3ccccc3cc2O)c1`, the EC50 is 9.18 µM.

`Cn1c(N/N=C/c2c[nH]c3ccccc23)nc2ccccc21`: the 50% effective concentration (EC50) is 6.03 µM.

As for `c1ccc(-c2cccc(-c3ccccn3)n2)nc1`, the 50% effective concentration (EC50) was 0.521 µM.

In the case of `CCCCCCCCCCCCCCCC[N+](C)(C)C`, the EC50 is > 15 µM (inactive).

Regarding `CCN(CC)c1ccc2nc3ccccc3[n+](CC)c2c1`, the EC50 is 0.842 µM.

In the case of `NC1=NC(=O)C(Cc2cccc(Cl)c2Cl)S1` (stereo unspecified), the EC50 is > 16 µM (inactive).

As to `O=C1c2ccccc2C(=O)c2c1cccc2N1CCCC1`, the EC50 is > 16 µM (inactive).

Take `CS/C(=N\S(=O)(=O)c1cccs1)Nc1ccc(F)c(Cl)c1`: the EC50 is 1.89 µM.

`NNC(=O)c1cc(-c2cccs2)nc2ccccc12`: the EC50 was > 15 µM (inactive).

`Cc1[nH]nc(-c2ccc(O)c(C)c2O)c1-c1cnn(-c2ccccc2)c1`: the EC50 was 3.96 µM.

As to `Fc1cccc(-n2cc(-c3ccccc3)c3c(=S)nc[nH]c32)c1`, the EC50 is 1.79 µM.

Regarding `CC(CC(=O)Nc1ncc([N+](=O)[O-])s1)c1ccccc1` (stereo unspecified), the concentration giving a half-maximal response (EC50) was 0.322 µM.

Turning to `CN1CCN(CC(=O)N2CCn3c4c(c5cc(C6CCCCC6)ccc53)CCCC42)CC1` (stereo unspecified), the EC50 is 4.19 µM.

With `COC(=O)c1c(C)n(-c2ccccc2)c2ccc(O)cc12`, the half-maximal effective concentration (EC50) is 3.16 µM.

On to `O=C(c1cc(-c2ccccc2)n[nH]1)N1CCc2c([nH]c3ccccc23)C1c1ccccn1` (stereo unspecified), for which the concentration giving a half-maximal response (EC50) was 0.692 µM.

For `Nc1cc(N)nc(SCc2cccc(F)c2)n1`, the EC50 was > 15 µM (inactive).

Regarding `O=C(CCl)N(c1ccc(Cl)cc1)c1c[nH]c2ccccc12`, the half-maximal effective concentration (EC50) is 6.41 µM.

For the compound `O=C1N/C(=N\N=C\c2cccnc2)SC1Cc1ccc(SC(F)F)cc1` (stereo unspecified), the 50% effective concentration (EC50) is 3.24 µM.

Take `CCOc1ccc2c(c1)OC(c1ccc(C)cc1)(C(F)(F)F)NC2=O` (stereo unspecified): the EC50 was > 16 µM (inactive).

For the compound `COc1ccc(CCNC(=O)c2c(O)c3ccccc3n(C)c2=O)cc1`, the EC50 is > 15 µM (inactive).

For the compound `COc1cccc(/C=N/Nc2cc(N3CCOCC3)ncn2)c1O`, the EC50 was 6.27 µM.

Turning to `COc1ccc(C2=NN(c3nc4ccccc4s3)C(=O)C2)cc1`, the EC50 was 5.66 µM.

In the case of `Nc1c(S(=O)(=O)c2cccc(Cl)c2)c2nc3ccccc3nc2n1/N=C/c1ccc(O)c(O)c1`, the EC50 was 6.49 µM.

Regarding `OCc1ccnc2c(O)cccc12`, the EC50 was > 16 µM (inactive).

As for `O=C(Nc1nnc(-c2ccc3c(c2)CCCC3)o1)c1ccccc1`, the EC50 is 0.484 µM.

As to `CCSc1nnc(-c2ccc(C)cc2)c2ccccc12`, the half-maximal effective concentration (EC50) was 0.193 µM.

Regarding `CC[n+]1c(/C=C/N(C)c2ccccc2)sc2ccc(Cl)cc21`, the half-maximal effective concentration (EC50) was 3.15 µM.

Take `Cc1c(O)cc2n(c1=O)-c1ccc(Cl)cc1C2(C)C`: the concentration for a half-maximal effect (EC50) is 0.332 µM.

(Values after PubChem BioAssay AID2423 (Broad Institute, 2010).)
